Laboratory results from patent US6943016B1, “Human adult astrocytes, their preparation and uses thereof” (Aventis Pharma S.A., priority 1999, dated 2005).

System: human adult astrocytes
Test: TH activity in transduced human adult astrocytes (enzymatic assay of Reinhard et al.)
Type: cell-based
Settings: AdPGKtet hTH-1-infected astrocytes, doxycycline 10 ng/ml
Protocol: The medium was renewed every second day.
Three, 7 and 14 days after infection, cells were harvested and processed to measure TH activity and evaluate L-Dopa production. TH activity of cell pellets was assayed as previously described (Reinhard et al. 1986). The production of L-Dopa was assessed after growing human astrocytes for 24 h in DMEM/F12 without FCS. Conditioned media was collected, and 0.5 ml aliquots were mixed with an alumina suspension (40 mg/ml) in 0.05 M Tris-HCl, pH 8.6. Each mixture was then continuously stirred for 10 min, washed with the Tris-HCl buffer, and the alumina finally collected by centrifugation (800 g, 5 min. 4° C.). Catechols adsorbed onto the alumina gel were eluted with 0.6 N perchloric acid (0.1 ml per sample), and the eluate was neutralized with 2 M potassium phosphate pH 7.4 (20 μl per sample). After centrifugation (30 000 g, 15 min, 4° C.), 10 μl aliquots of the cleared supernatant were injected into a high performance liquid chromatography column (Ultrasphere IP, 25 cm, 0.46 cm outer diameter, 5 μm) for the electrochemical quantification of L-Dopa, as described in detail elsewhere (Adrien et al., 1989).

C[C@H]1c2cccc(O)c2C(=O)C2=C(O)[C@]3(O)C(=O)C(C(N)=O)=C(O)[C@@H](N(C)C)[C@@H]3[C@@H](O)[C@@H]21 [doxycycline]
decrease of TH activity in the presence of doxycycline (14 days post-infection): at least 10 fold
TH activity in doxycycline-treated cells (day 14): 3,590 pmol/mg prot/h
